Source: patent US12173020B2, “New-type oxazolidinone compounds and preparation method therefor” (priority 2019, dated 2024)

Key:
[1] = tested on: methicillin-resistant Staphylococcus aureus (MRSA); assay: agar dilution method, inhibitory effect on MRSA; type: cell-based; details: for MIC50: Staphylococcus aureus, read-out: Minimum inhibitory concentration (MIC50, μg/ml) MRSA
Excerpt: (§1) In order to determine the antibacterial activity of these new oxazolidinone-based compounds, an agar dilution method was used to test the inhibitory effect on methicillin-resistant Staphylococcus aureus (MRSA) and vancomycin-resistant Enterococcus (VRE). The bacteria inhibition effect was expressed as minimum inhibitory concentration (MIC50, μg/ml) The test results are shown in the following table.

[2] = tested on: vancomycin-resistant Enterococcus (VRE); assay: agar dilution method, inhibitory effect on VRE; type: cell-based; details: for MIC50: Enterococcus, read-out: Minimum inhibitory concentration (MIC50, μg/ml) VRE
Excerpt: as §1

Structure (SMILES) | MIC50 [1] | MIC50 [2] | Minimum inhibitory concentration (MIC50, μg/ml) MRSA [1] | Minimum inhibitory concentration (MIC50, μg/ml) VRE [2]
C=Cn1nnc(-c2ccc(-c3ccc(N4C[C@H](CO)OC4=O)cc3F)cn2)n1.O=P(O)(O)O [compound 85, (R)-3-(3-fluoro-4-(6-(2-vinyl-2H-tetrazol-5-yl)pyridin-3-yl)phenyl)-5-(hydroxymethyl) oxazolidin-2-one phosphate] | 0.2 µg/mL | 0.2 µg/mL | – | –
C=Cn1nnc(-c2ccc(-c3ccc(N4C[C@H](C(O)C(F)(F)F)OC4=O)cc3F)cn2)n1.O=P(O)(O)O (stereo partly drawn) [compound 119, (R)-3-(3-fluoro-4-(6-(2-vinyl-2H-tetrazol-5-yl)pyridin-3-yl)phenyl)-5-(1-hydroxy-2-trifluoroethyl) oxazolidin-2-one phosphate] | – | – | 0.7 µg/mL | 0.7 µg/mL
CCn1nnc(-c2ccc(-c3ccc(N4C[C@@H](C(O)C(F)F)OC4=O)cc3F)cn2)n1.O=P(O)(O)O (stereo partly drawn) [compound 134, (S)-3-(3-fluoro-4-(6-(2-ethyl-2H-tetrazol-5-yl)pyridin-3-yl)phenyl)-5-(1-hydroxy-2-difluoroethyl) oxazolidin-2-one phosphate] | – | – | 0.5 µg/mL | 0.5 µg/mL
CCn1nnc(-c2ccc(-c3ccc(N4C[C@H](C(C)O)OC4=O)cc3F)cn2)n1.O=P(O)(O)O (stereo partly drawn) [compound 97, (R)-3-(3-fluoro-4-(6-(2-ethyl-2H-tetrazol-5-yl)pyridin-3-yl)phenyl)-5-(1-hydroxyethyl) oxazolidin-2-one phosphate] | 1.1 µg/mL | 1.1 µg/mL | – | –
C=Cn1nnc(-c2ccc(-c3ccc(N4C[C@@H](CO)OC4=O)cc3F)cn2)n1.O=P(O)(O)O [compound 86, (S)-3-(3-fluoro-4-(6-(2-vinyl-2H-tetrazol-5-yl)pyridin-3-yl)phenyl)-5-(hydroxymethyl) oxazolidin-2-one phosphate] | 0.3 µg/mL | 0.3 µg/mL | – | –
CCCn1nnc(-c2ccc(-c3ccc(N4C[C@H](C(O)C(F)(F)F)OC4=O)cc3F)cn2)n1.O=P(O)(O)O (stereo partly drawn) [compound 103, (R)-3-(3-fluoro-4-(6-(2-propyl-2H-tetrazol-5-yl)pyridin-3-yl)phenyl)-5-(1-hydroxy-2-trifluoroethyl) oxazolidin-2-one phosphate] | – | – | 0.7 µg/mL | 0.7 µg/mL
CCCn1nnc(-c2ccc(-c3ccc(N4C[C@@H](C(C)O)OC4=O)cc3F)cn2)n1.O=P(O)(O)O (stereo partly drawn) [compound 106, (S)-3-(3-fluoro-4-(6-(2-propyl-2H-tetrazol-5-yl)pyridin-3-yl)phenyl)-5-(1-hydroxyethyl) oxazolidin-2-one phosphate] | 1 µg/mL | 1.2 µg/mL | – | –
CCn1nnc(-c2ccc(-c3ccc(N4C[C@@H](C(OP(=O)(O)O)C(F)(F)F)OC4=O)cc3F)cn2)n1 (stereo partly drawn) [compound 96, (S)-3-(3-fluoro-4-(6-(2-ethyl-2H-tetrazol-5-yl)pyridin-3-yl)phenyl)-5-(1-hydroxy-2-trifluoroethyl) oxazolidin-2-one phosphate] | – | – | 0.8 µg/mL | 0.8 µg/mL
CC(O)[C@H]1CN(c2ccc(-c3ccc(-c4nnn(C)n4)nc3)c(F)c2)C(=O)O1.O=P(O)(O)O (stereo partly drawn) [compound 87, (R)-3-(3-fluoro-4-(6-(2-methyl-2H-tetrazol-5-yl)pyridin-3-yl)phenyl)-5-(1-hydroxyethyl) oxazolidin-2-one phosphate] | 0.3 µg/mL | 0.3 µg/mL | – | –
C=Cn1nnc(-c2ccc(-c3ccc(N4C[C@H](C(C)O)OC4=O)cc3F)cn2)n1.O=P(O)(O)O (stereo partly drawn) [compound 121, (R)-3-(3-fluoro-4-(6-(2-vinyl-2H-tetrazol-5-yl)pyridin-3-yl)phenyl)-5-(1-hydroxyethyl) oxazolidin-2-one phosphate] | 1.1 µg/mL | 1.1 µg/mL | – | –
CCCn1nnc(-c2ccc(-c3ccc(N4C[C@H](C(O)CF)OC4=O)cc3F)cn2)n1.O=P(O)(O)O (stereo partly drawn) [compound 141, (R)-3-(3-fluoro-4-(6-(2-propyl-2H-tetrazol-5-yl)pyridin-3-yl)phenyl)-5-(1-hydroxy-2-fluoroethyl) oxazolidin-2-one phosphate] | 0.3 µg/mL | 0.2 µg/mL | – | –
Cn1nnc(-c2ccc(-c3ccc(N4C[C@@H](C(O)C5CC5)OC4=O)cc3F)cn2)n1.O=P(O)(O)O (stereo partly drawn) [compound 132, (S)-3-(3-fluoro-4-(6-(2-methyl-2H-tetrazol-5-yl)pyridin-3-yl)phenyl)-5-(1-hydroxy-1-cyclopropylmethyl) oxazolidin-2-one phosphate] | 0.3 µg/mL | 0.3 µg/mL | – | –
CCn1nnc(-c2ccc(-c3ccc(N4C[C@H](C(O)CF)OC4=O)cc3F)cn2)n1.O=P(O)(O)O (stereo partly drawn) [compound 135, (R)-3-(3-fluoro-4-(6-(2-ethyl-2H-tetrazol-5-yl)pyridin-3-yl)phenyl)-5-(1-hydroxy-2-fluoroethyl) oxazolidin-2-one phosphate] | 0.4 µg/mL | 0.3 µg/mL | – | –
CCC(OP(=O)(O)O)[C@@H]1CN(c2ccc(-c3ccc(-c4nnn(C5CC5)n4)nc3)c(F)c2)C(=O)O1 (stereo partly drawn) [compound 116, (S)-3-(3-fluoro-4-(6-(2-cyclopropyl-2H-tetrazol-5-yl)pyridin-3-yl)phenyl)-5-(1-hydroxypropyl)) oxazolidin-2-one phosphate] | – | – | 0.2 µg/mL | 0.3 µg/mL
C=Cn1nnc(-c2ccc(-c3ccc(N4C[C@H](C(O)F)OC4=O)cc3F)cn2)n1.O=P(O)(O)O (stereo partly drawn) [compound 125, (R)-3-(3-fluoro-4-(6-(2-vinyl-2H-tetrazol-5-yl)pyridin-3-yl)phenyl)-5-(hydroxyfluoromethyl) oxazolidin-2-one phosphate] | 0.3 µg/mL | 0.3 µg/mL | – | –
CCCn1nnc(-c2ccc(-c3ccc(N4C[C@H](C(OP(=O)(O)O)C(F)F)OC4=O)cc3F)cn2)n1 (stereo partly drawn) [compound 139, (R)-3-(3-fluoro-4-(6-(2-propyl-2H-tetrazol-5-yl)pyridin-3-yl)phenyl)-5-(1-hydroxy-2-difluoroethyl) oxazolidin-2-one phosphate] | – | – | 0.8 µg/mL | 0.9 µg/mL
CCC(O)[C@@H]1CN(c2ccc(-c3ccc(-c4nnn(CC)n4)nc3)c(F)c2)C(=O)O1.O=P(O)(O)O (stereo partly drawn) [compound 100, (S)-3-(3-fluoro-4-(6-(2-ethyl-2H-tetrazol-5-yl)pyridin-3-yl)phenyl)-5-(1-hydroxypropyl) oxazolidin-2-one phosphate] | 0.2 µg/mL | 0.3 µg/mL | – | –
CCCn1nnc(-c2ccc(-c3ccc(N4C[C@@H](C(O)C5CC5)OC4=O)cc3F)cn2)n1.O=P(O)(O)O (stereo partly drawn) [compound 144, (S)-3-(3-fluoro-4-(6-(2-propyl-2H-tetrazol-5-yl)pyridin-3-yl)phenyl)-5-(1-hydroxy-1-cyclopropylmethyl) oxazolidin-2-one phosphate] | 0.4 µg/mL | 0.4 µg/mL | – | –
Cn1nnc(-c2ccc(-c3ccc(N4C[C@H](C(O)CF)OC4=O)cc3F)cn2)n1.O=P(O)(O)O (stereo partly drawn) [compound 129, (R)-3-(3-fluoro-4-(6-(2-methyl-2H-tetrazol-5-yl)pyridin-3-yl)phenyl)-5-(1-hydroxy-2-fluoroethyl) oxazolidin-2-one phosphate] | 0.5 µg/mL | 0.3 µg/mL | – | –
